Experimental data as given in patent publication US10780061B2, “Composition comprising farnesol and use thereof” (Daegu Gyongbuk Institute of Science and Technology, priority 2014, dated 2020).

Assays:
[1] = tested on: extensor digitorum longus muscle fibers; experiment: Immunohistochemistry of muscle fiber type (MHC2a/MHC2b) in extensor digitorum longus muscle; format: in vivo, mouse
Source text: To examine distribution of 2a type muscle fiber and 2b type muscle fiber, extensor digitorum longus muscles of mice administered with farnesol for 5 weeks are subjected to immunohistochemistry. 2a type muscle fiber is an oxidative muscle fiber type, and there are two types: aerobic, that is, oxygen-dependent energy source and anaerobic, that is, oxygen-independent energy source. 2b type muscle fiber is a glycolytic muscle fiber type, and includes only anaerobic energy source. Frozen sections stored in a deep freezer of -80° C. are washed with 1×PBS twice, and fixed with 4% paraformaldehyde at room temperature for 15 minutes, and then washed with 1×PBS twice. The tissue and a permeabilization buffer (0.2% Triton-X/PBS) are reacted at room temperature for 30 minutes, and washed with 1×PBS twice. The tissue and Proteinase K are reacted at 37° C. for 10 minutes for antigen retrieval, and washed with 1×PBS twice, and blocked in a blocking buffer (0.1% gelatin, 5% goat serum, 0.5% BSA, and 0.1% Triton-X) for 1 hr. As a primary antibody, a rabbit antibody specifically binding to MHC2a or MHC2b is diluted with the blocking buffer at a ratio of 1:500 and reacted at 4° C. for 12 hrs, followed by washing with 1×PBS twice. A secondary antibody, anti-rabbit antibody is reacted, followed by washing 1×PBS twice. After sealing, a fluorescence microscope (Nikon, body: Ti-u, camera: DS-RI1, program: NIS-elements BR 3.1) was used for analysis. Farnesol is administered to mice in the same manner as in Section 3 of Example 2, except that 22-month-old mice are used instead of 5-month-old mice and administration is performed for 4 months instead of 5 weeks, and changes in the skeletal muscle type are examined.

[2] = cited from earlier work
[3] = tested on: Myh2a-positive muscle fibers; experiment: Myh2a immunostaining of hind limb muscles, high fat diet (PGC-1α-inhibited) model; format: in vivo, mouse; conditions: high fat diet with 0.5% compound, 3 months
Source text: To prepare the PGC-1α-inhibited model, 3-month-old mouse (female, body weight of 20 g) is fed with high fat diet, in which fat is increased to 60%, compared to a negative control group, for 5 days (short-term effect) or 3 months (long-term effect). The negative control group is fed with a general diet. Farnesol is mixed in the high fat diet at a content of 0.5% (weight of farnesol/weight of diet). A positive control group is fed with high fat diet containing a type II diabetes drug, metformin at a content of 0.5% (weight of metformin/weight of diet). Mice are fed with the general diet, the high fat diet, and the high fat diet containing farnesol or metformin for 3 months, and then hind limbs are removed to analyze muscle differentiation and mitochondrial enzyme activity.
In FIG. 6C, SD represents a standard diet as a negative control group, HFD represents a high fat diet, and HFD+Farnesol or HFD-metformin represents farnesol or metformin-added HFD, respectively.

[4] = tested on: AAV-PARIS WT or C631S-introduced tibialis anterior muscles; experiment: SDH staining of muscles introduced with AAV-PARIS WT or AAV-PARIS C631S; format: in vivo, mouse; conditions: 5-month-old mice, farnesol diet 1 week, 4 days after virus
Protocol: 5-month-old C57BL/6 male mice (body weight of 22 g) are fed with a control diet or a farnesol-containing diet for 1 week, and then AAV-GFP, AAV-PARIS WT or AAV-PARIS C631S virus is injected into tibialis anterior muscles. Feeding conditions, not mentioned, are the same as in Section 2 of Example 2. After 4 days, the muscles are collected and histological staining is performed to analyze mitochondrial enzyme activity. The staining is performed by SDH enzyme activity staining. Viral transduction efficiency is evaluated by GFP fluorescence.

PARIS = PARIS protein and transcriptional levels in extensor digitorum longus muscles of old mouse; format: in vivo; conditions: 24-month-old mouse, farnesol 5 weeks, vs old mouse without farnesol
[5] = tested on: PARIS-overexpressing muscles; experiment: SDH staining of PARIS-overexpressing tibialis anterior muscles; format: in vivo, mouse; conditions: 22-month-old mice, PARIS-GFP adenovirus in tibialis anterior muscle, 4 days
Protocol: Control-GFP adenovirus and PARIS-GFP adenovirus are injected into the tibialis anterior muscles of 22-month-old mice (female, body weight of 30 g), respectively. The old mice are fed with a predetermined diet, and 4 days later, muscles are collected and subjected to histological staining and qRT-PCR. For PARIS overexpression, human full-length PARIS cDNA (IMAGE: 30347892; Open Biosystems) (SEQ ID NO:9) is introduced into BamH1 and EcoR1 restriction sites of a viral vector, AAV/CBA-WPRE-bGHpA (containing chicken beta-actin (CBA) promoter and woodchuck hepatitis virus post-transcriptional-regulatory element (WPRE), and bovine growth hormone polyadenylation signal sequence) to prepare a full-length PARIS cDNA-containing AAV/CBA-WPRE-bGHpA vector, and this vector is introduced into the adenovirus-introduced cells. A high titer adenovirus […] is a viral vector manufactured by Viral Vector Core Facility (University of Iowa Carver College). Virus transduction efficiency is evaluated by GFP fluorescence. To evaluate PARIS overexpression and administration effect of farnesol, frozen sections of tibialis anterior muscles are stained for SDH enzyme activity.
Further, similar to the result in C2C12 myoblast models, an oxidative metabolism reduced by PARIS overexpression is also recovered by farnesol treatment in animal models. […]

AMPK and p38 MAPK = experiment: Immunoblot of pAMPK and pp38 in farnesol-treated C2C12 myoblasts; format: cell-based; conditions: 0.1 μM farnesol, 48 hours
Protocol: The C2C12 myoblasts are cultured in DMEM containing 2% horse serum and 0.1 μM farnesol dissolved in DMSO for 48 hours. A control group is cultured in the same manner as above, except that only DMSO is added. Other culture conditions and immunoblot procedure are the same as those described in Section 1 of Example 2. PGC-1α, pAMPK, pp38 and basal forms thereof are subjected to immunoblotting.

[6] = Grip strength of old mice; format: in vivo; conditions: old mouse, farnesol diet 4 months, vs negative control old mouse
Protocol: 22-month-old female mice (weighing 30 g) are fed with a control diet and a farnesol diet for 4 months. That is, 22-month-old mice are fed for 4 months, and then 26-month-old mice are analyzed. […] The same mouse is used as a control group, except that it is fed with a diet containing no farnesol. Muscle strength, energy expenditure, glucose tolerance, and fat accumulation of each mouse are evaluated. […] To measure grip strength as an index of mouse muscle strength, a grip strength meter (Bioseb) is used. For measurement of grip strength of mouse, its front paws are allowed to grip the grid, and its tail is then pulled back steadily and horizontally. When the animal releases the grid, the value is used as grip strength. The maximal grip strength values of individual mice are measured 5 times, and mean values are obtained. Grip strength is expressed as a force (g, gram) per weight.

[7] = 5-month-old mice, farnesol orally 5 weeks

**Q.** For `CC(C)=CCC/C(C)=C/CC/C(C)=C/CO` [farnesol, (2E,6E)-3,7,11-trimethyldodeca-2,6,10-trien-1-ol], which “diameter of oxidative 2a type muscle fiber in EDL” value [1, 7] is on record?
**A.** The value was “increased”.

**Q.** And the “number of glycolytic 2b type muscle fiber in EDL” value [1, 7]?
**A.** Its value is “decreased”.

**Q.** And the “number of oxidative 2a type muscle fiber in EDL” value [1, 7]?
**A.** Its value is “increased”.

**Q.** And the “number of oxidative 2a type muscle fiber in EDL compared to control” value ([1]; 22-month-old mice, farnesol 4 months)?
**A.** Its value is “about 1.4 times”.

**Q.** And the “lethal dose (LD) for 50% mouse mortality” value [2]?
**A.** The value was 8,765 mg per mouse body weight (kg).

**Q.** And the “percentage of Myh2a-postive muscle fibers” value [3]?
**A.** The value was “significantly increases”.

**Q.** And the “reduction in mitochondrial enzyme activity (SDH), AAV-PARIS WT-introduced muscles” value [4]?
**A.** The value was “inhibits a reduction”.

**Q.** And the “protein expression level of PARIS in EDL” value (PARIS)?
**A.** The value was “remarkably decreased”.

**Q.** And the “transcriptional level of PARIS in EDL” value (PARIS)?
**A.** Its value is “remarkably decreased”.

**Q.** What about the “oxidative metabolism (SDH staining) reduced by PARIS overexpression” value [5] of the same molecule?
**A.** Its value is “recovered”.

**Q.** What about the pAMPK level (AMPK and p38 MAPK) of the same molecule?
**A.** The pAMPK level was “does not affect”.

**Q.** And the pp38 level (AMPK and p38 MAPK)?
**A.** Its pp38 level is “does not affect”.

**Q.** What about the grip strength [6] of the same molecule?
**A.** Its grip strength is “significantly increased”.
